From patent US20230374575A1, “METHOD FOR VIRUS DETECTION” (priority 2020, published 2023)
Several values for one entry are separate records, joined by “and”; a condition that tells them apart may be missing. Equal values may be shown once.

Legend:
(RT-)PCR reaction = test: (RT-)PCR compatibility of test substance, reaction as a whole; assay type: biochemical
Taq polymerase = molecular target: T1, Taq polymerase (Thermus aquaticus, UniProt P19821); test: (RT-)qPCR with test substance added, DNA template; assay type: biochemical; conditions: for maximal non-inhibiting concentration, Taq polymerase: final concentration in (RT-)PCR, QuantiNova Pathogen Mix, 40 cycles, compared to water control (Examples 1, 2)
T1 construct: purchased QIAGEN (QuantiNova Pathogen + IC Kit; QIAprep& Viral RNA UM Kit)

DNA and/or RNA viruses = test: Virucidal suspension tests, summary statement; assay type: cell-based; conditions: summary of the examples; against DNA and/or RNA viruses
[1] = test system: reverse transcriptase (RT); test: (RT-)qPCR with test substance added, RT reaction (IC RNA template); assay type: biochemical; conditions: for maximal non-inhibiting concentration, RT reaction: final concentration in (RT-)PCR, QuantiNova Pathogen Mix, 40 cycles, compared to water control (Examples 1, 2)
[2] = test system: Vaccinia Virus, Elstree strain, ATCC VR1549; assay type: cell-based
[3] = test system: N1 and N2 genes of SARS-CoV-2; assay type: biochemical
Bovine coronavirus = test: Virucidal activity test according to DIN EN 14476:2019-10, Bovine coronavirus; assay type: cell-based, Bovine coronavirus (Betacoronavirus 1); conditions: for inactivation of Bovine coronavirus (in words): at the tested concentrations (Example 4); for Log10 reduction factor(s) incl. 95% confidence interval(s) against Bovine coronavirus: conc. 1% (DDAC 0.015%, Braunol povidone iodine 0.05%), initial results
Method: Analysis was performed by Henkel (Dusseldorf) according to the European norm DIN EN 14476:2019-10.
The following test for virucidal activity of the different test substances were performed by Henkel (Dusseldorf) according to the European norm DIN EN 14476:2019-10. The experimental conditions were identical to those in Example 3 but with a Bovine coronavirus instead of Vaccinia virus.

[4] = test system: in vitro transcribed SARS-CoV-2 genes N1 and N2; assay type: biochemical
[5] = Example 8, FIG. 8, substance alone, increasing concentrations, QIAprep&amp reaction mix without Extraction Buffer step
[6] = Example 7, FIG. 7, without Tween20
[7] = Example 6, FIG. 6A, Tween20 at very high concentrations, Tween60 and Brij58 at much lower concentrations

T1 sequence (P19821 whole entry): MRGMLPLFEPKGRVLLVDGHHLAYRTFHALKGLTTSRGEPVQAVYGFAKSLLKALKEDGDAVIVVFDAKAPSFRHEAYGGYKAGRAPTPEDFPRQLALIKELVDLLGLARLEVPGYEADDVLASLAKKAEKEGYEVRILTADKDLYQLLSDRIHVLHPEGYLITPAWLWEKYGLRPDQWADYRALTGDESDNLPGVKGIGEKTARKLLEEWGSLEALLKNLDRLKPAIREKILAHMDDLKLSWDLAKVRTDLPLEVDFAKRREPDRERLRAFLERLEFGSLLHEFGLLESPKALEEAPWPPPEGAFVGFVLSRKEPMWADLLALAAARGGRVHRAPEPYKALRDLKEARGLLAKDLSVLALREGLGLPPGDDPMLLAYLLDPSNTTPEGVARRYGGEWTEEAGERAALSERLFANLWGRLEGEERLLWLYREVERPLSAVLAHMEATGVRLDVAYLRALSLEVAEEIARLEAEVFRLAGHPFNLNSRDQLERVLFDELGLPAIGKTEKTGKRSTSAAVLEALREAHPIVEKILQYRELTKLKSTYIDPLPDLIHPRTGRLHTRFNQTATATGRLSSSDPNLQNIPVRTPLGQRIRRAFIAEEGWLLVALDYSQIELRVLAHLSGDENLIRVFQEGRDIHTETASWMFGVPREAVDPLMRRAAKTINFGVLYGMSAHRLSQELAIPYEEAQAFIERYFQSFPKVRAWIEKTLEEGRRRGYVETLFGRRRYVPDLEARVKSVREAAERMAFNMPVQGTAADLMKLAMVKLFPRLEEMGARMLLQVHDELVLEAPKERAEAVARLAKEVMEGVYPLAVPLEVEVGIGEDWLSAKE

CCCCCCCCCC[N+](C)(C)CCCCCCCCCC.[Cl-] [DDAC, Didecyldimethylammonium chloride]
inhibition of the (RT-)PCR (in words) ((RT-)PCR reaction; [5]): significant inhibition | maximal non-inhibiting concentration, Taq polymerase (Taq polymerase): ≤ 0.005% | reduction of the virus titer (DNA and/or RNA viruses): about 4 log10 | maximal non-inhibiting concentration, RT reaction [1]: ≤ 0.005% | reduction of the virus titer [2]: 4 log10 grades | virucidal activity against Vaccinia virus (in words) [2]: strong virucidal activity | inhibition of the (RT-)PCR by substance in transport/storage medium (in words) [3]: no inhibition | inactivation of Bovine coronavirus (in words) (Bovine coronavirus): effectively inactivated | Log10 reduction factor(s) incl. 95% confidence interval(s) against Bovine coronavirus (Bovine coronavirus; contact time 15 min): >5.13 ± 0.25 Log10 | Log10 reduction factor(s) incl. 95% confidence interval(s) against Bovine coronavirus (Bovine coronavirus; contact time 60 min): >4.88 ± 0.25 Log10

CCCCCCCCCCCC[N+](C)(C)[O-] [LDAO, Lauryldimethylamin-N-oxide (N,N-Dimethyldodecylamine N-oxide)]
maximal non-inhibiting concentration, Taq polymerase (Taq polymerase): 0.035% | inhibition of the RT reaction (in words) ([1]; LDAO at 0.035%, Ecosurf EH-9 at all tested concentrations (0.035-0.7%), compared to water control): slight but acceptable inhibition | maximal non-inhibiting concentration, RT reaction [1]: 0.035%

CCCCCCCCCCCCOS(=O)(=O)[O-].[Na+] [SDS, Sodium dodecyl sulfate]
inhibition of the (RT-)PCR (in words) ((RT-)PCR reaction; [5]): significant inhibition | concentration from which Ct-values increase, Taq polymerase (Taq polymerase; [6]): ≥ 0.125% | concentration from which Ct-values increase, reverse transcriptase [1, 6]: ≥ 0.03125%

O=C(O)CCP(CCC(=O)O)CCC(=O)O [TCEP, Tris-(2-carboxyethyl)-phosphin]
concentration at which Ct-values increase again [4]: ≥ 2 mM | concentration that neutralizes the inhibitory effect of 0.5% povidone iodine in RT-PCR [4]: 5 mM | decrease of the Ct-value [4]: about 2

CCCCCCCCCCCC(=O)OCCOCCOCCOCCOCCOCCOCCOCCOCCOCCOCCOCCOCCOCCOCCOCCOCCOCCOCCOCCOCC(OCCOCCOCCOCCOCCOCCOCCOCCOCCOCCOCCOCCOCCOCCOCCOCCOCCOCCOCCOCCO)C1OCC(OCCOCCOCCOCCOCCOCCOCCOCCOCCOCCOCCOCCOCCOCCOCCOCCOCCOCCOCCOCCO)C1OCCOCCOCCOCCOCCOCCOCCOCCOCCOCCOCCOCCOCCOCCOCCOCCOCCOCCOCCOCCO (centres unmarked) [Tween20, polyoxyethylene (20) sorbitan monolaurate]
enzyme inhibition in (RT-)PCR (in words) ((RT-)PCR reaction; 0.7% final concentration in (RT-)PCR): some inhibition | inhibition of the (RT-)PCR (in words) ((RT-)PCR reaction; [7]): only a moderate inhibition | counteracting effect on SDS inhibition of the Taq polymerase (in words) (Taq polymerase; 3% and 5% Tween20 in the PCR, even at the highest concentrations of SDS tested): reactivates the activity | maximal non-inhibiting concentration, Taq polymerase (Taq polymerase): ≤ 0.35% | counteracting effect on SDS inhibition of the reverse transcription (in words) ([1]; 3% and 5% Tween20 in the PCR, depending on the Tween20 concentration): significantly reduced | maximal non-inhibiting concentration, RT reaction [1]: ≤ 0.35% | log10 reduction factor(s) incl. 95% confidence interval(s) against Vaccinia Virus, Elstree strain, ATCC VR1549, with clean conditions [2]: 2.00 ± 0.54 log10 and 1.88 ± 0.41 log10 | virucidal activity against Vaccinia virus (in words) [2]: least reduction of the virus titer

polyoxyethylene (20) sorbitan monostearate [Tween60]
inhibition of the (RT-)PCR (in words) ((RT-)PCR reaction; [7]): no PCR inhibition at all

polyoxyethylene(20) cetyl ether [Brij58]
inhibition of the (RT-)PCR (in words) ((RT-)PCR reaction; [7]): no PCR inhibition at all

povidone iodine
maximal non-inhibiting concentration, Taq polymerase (Taq polymerase): ≤ 0.0175% | reduction of the virus titer (DNA and/or RNA viruses): about 4 log10 | inhibition of the (RT-)PCR (in words) [4]: significant inhibition | maximal non-inhibiting concentration, RT reaction [1]: ≤ 0.0175% | reduction of the virus titer [2]: 4 log10 grades | virucidal activity against Vaccinia virus (in words) [2]: strong virucidal activity | inactivation of Bovine coronavirus (in words) (Bovine coronavirus): effectively inactivated | Log10 reduction factor(s) incl. 95% confidence interval(s) against Bovine coronavirus (Bovine coronavirus; contact time 15 min): >6.13 ± 0.25 Log10 | Log10 reduction factor(s) incl. 95% confidence interval(s) against Bovine coronavirus (Bovine coronavirus; contact time 60 min): >5.88 ± 0.25 Log10
